Patent US8470807B2, “Antioxidant” (Morinaga Milk Industry Co., Ltd., priority 2008, dated 2013)

Columns and labels:
[1] = system: ApoE gene-deficient mice; test: Inhibition of lipid peroxide formation in blood (serum TBARS/MDA) in ApoE gene-deficient mice; assay type: in vivo, mouse; conditions: 30 μg per day; for Amount of lipid peroxide in blood (MDA concentration): serum, 14 days after start of administration, oral once a day, high-cholesterol diet
Source text: The actions of inhibiting formation of a lipid peroxide of various test samples including the antioxidant of the present invention can be evaluated by using, as an index, the amount of a thiobarbituric acid (TBA) reactive substance (TBARS), for example. Specifically, it may be defined that the larger the amount of the TBARS, the larger the amount of a lipid peroxide formed.
Examples of the TEARS include malondialdehyde (MDA) which reacts with TBA under high-temperature and acidic conditions and is a natural by-product of a lipid peroxidation. An MDA-TBA adduct can be detected by measurement of an absorbance at 530 to 540 nm to perform colorimetric measurement of MDA.
Also, the action of inhibiting formation of a lipid peroxide of a test sample can be evaluated using ApoE gene-deficient mice, which are often used as model animals which develop arteriosclerosis by hypercholesterolemia (hyper-LDL-cholesterolemia) (for example, see Reference Document 1: “Saibokogaku (Cell Engineering),” Extra Issue, “Medical Experiment Manual” series, Strategy for Study of Arteriosclerosis+Hyperlipidemia, Shujunsha Co., 1st edition, 1st impression, published on Apr. 1, 1996, pp. 441-443).
Further, in the model mice, the lipid peroxide level is higher than that of normal mice, and formation of atherosclerotic lesions (plagues) in the artery is observed with time. Therefore, the action of inhibiting formation of a lipid peroxide of a test sample can be evaluated by administering the test sample to the model mice and measuring a lipid peroxide in blood of the model mice.
Those samples were separately dissolved in propylene glycol, and diluted with distilled water so as to obtain test solutions with the concentration of each compound of 30 μg/ml, and the solutions were used for a test. Note that physiological saline was used as a negative sample.
(§1) Six-week-old male ApoE gene-deficient mice (purchased from Japan SLC, Inc.) were preliminarily fed with a high-cholesterol diet (manufactured by Research Diets, Inc.) for 2 weeks and divided into groups each of 15 mice.
To mice of each group, the test solution including the test samples 1 to 6, control sample, or negative sample was separately administered orally once a day for […] using medical probes in an amount of 1 ml per 25 g of mouse body weight. At an early period after the start of administration (14 days after the start of administration), blood was collected from the tail vein of each mouse, and serum was separated. Then, the amount of TBARS was measured using OxiSelect TBARS Assay Kit (manufactured by […]). Meanwhile, as a control, blood was collected from each normal mouse in the same manner as above.

[2] = system: ApoE gene-deficient mice; test: Number of atherosclerotic lesions (plaques) in thoracic aorta of ApoE gene-deficient mice; assay type: in vivo, mouse; conditions: 40 days after start, oral once a day for 39 consecutive days; for Number of plaques formed in thoracic aorta: 1 ml of 30 μg/ml per 25 g body weight, Oil red staining
Source text: In addition, it is generally known that a primary lesion of arteriosclerosis is caused by oxidized LDL. Therefore, it is also possible to evaluate the action of reducing a risk of arteriosclerosis through inhibiting formation of a lipid peroxide of the test sample by counting the number of atherosclerotic lesions (plaques) in the artery of each model mouse treated with the test sample.
In Example 2, a cyclolanostane compound, a lophenol compound, and a mixture of the cyclolanostane compound and the lophenol compound were each evaluated on the effect of reducing a risk of arteriosclerosis through the effect of inhibiting a lipid peroxide by counting the number of atherosclerotic lesions (plaques) in the artery using known arteriosclerosis model animals, ApoE gene-deficient mice.
Test samples 1 to 6, a control sample, and a negative sample were prepared in the same way as in Example 1 above and were each used for a test.
as §1
To mice of each group, the sample solution including the test samples, control sample, or negative sample was separately administered orally once a day for 39 consecutive days using medical probes in an amount of 1 ml per 25 g of mouse body weight. Forty days after the start of administration, the thoracic aorta part was fixed with formalin and stained with Oil red, and the number of plaques was counted.

| SMILES | effect of inhibiting formation of a lipid peroxide in blood compared with the negative sample ([1]; serum TBARS, 14 days after start of oral administration) | Amount of lipid peroxide in blood (MDA concentration) [1] [µM] | plaque formation compared with the negative sample [2] | Number of plaques formed in thoracic aorta [2] |
| --- | --- | --- | --- | --- |
| CC[C@H](C)C(=O)O[C@H]1C[C@H](O)C=C2C=C[C@H](C)[C@H](CC[C@@H](O)C[C@@H](O)CC(=O)[O-])[C@H]21.[Na+] [Control sample, reference compound] | a significant decrease in amount of a lipid peroxide in blood was not observed | 0.93 ± 0.05 | no significant difference | 10.6 ± 3.2 |
| CC(C)CCCC(C)C1CCC2(C)C3CCC4C(C)(C)C(O)CCC45CC35CCC12C (centres unmarked) [Test sample 1, 9,19-Cyclolanostan-3-ol] | – | 0.62 ± 0.01 | – | 6.0 ± 0.7 |
| C=C(CCC(C)C1CCC2(C)C3CCC4C(C)(C)C(O)CCC45CC35CCC12C)C(C)C (centres unmarked) [Test sample 2, 24-methylene-9,19-cyclolanostan-3-ol] | – | 0.5 ± 0.19 | – | 5.6 ± 1.5 |
| CC(C)CCC[C@@H](C)[C@H]1CC[C@H]2C3=CCC4C(C)C(O)CC[C@]4(C)[C@H]3CC[C@]12C (some centres unmarked) [Test sample 3, 4-Methylcholest-7-en-3-ol] | – | 0.71 ± 0.08 | – | 6.2 ± 1.9 |
| CC(C)C(C)CCC(C)C1CCC2C3=CCC4C(C)C(O)CCC4(C)C3CCC21C (centres unmarked) [Test sample 4, 4-methylergost-7-en-3-ol] | – | 0.69 ± 0.05 | – | 5.0 ± 1.4 |
| CCC(CCC(C)C1CCC2C3=CCC4C(C)C(O)CCC4(C)C3CCC21C)C(C)C (centres unmarked) [Test sample 5, 4-methylstigmast-7-en-3-ol] | – | 0.72 ± 0.02 | – | 5.6 ± 2.1 |
